Results as given in patent US12287322B2, “Composition for detecting hydrogen sulfide or measuring hydrogen sulfide concentration and composition comprising same as effective ingredient for diagnosing or imaging in vivo inflammation, tissues having hypoxic damage, or cancer” (SEOUL NATIONAL UNIVERSITY R&DB FOUNDATION, priority 2018, dated 2025).

What was measured:
[1] = system: reperfused brain after middle cerebral artery occlusion; assay: Autoradiography of brain reperfused after middle cerebral artery occlusion; type: in vivo, mouse; conditions: 2 hours occlusion, 12 hours recovery, 1 mCi tail vein, brain extracted after 1 hour, compared with TTC staining, FIG. 11
[2] = system: inflamed tissue where hydrogen sulfide was generated (carrageenan hind paw); assay: SPECT-CT imaging of carrageenan-inflamed tissue where hydrogen sulfide is produced; type: in vivo; conditions: mouse, 300 μCi tail vein 4 hours after 1% carrageenan, SPECT-CT after 1 hour, FIG. 10
Protocol: It has been reported that hydrogen sulfide was generated in the inflamed tissue induced by the administration of carrageenan (Li L, Bhatia M, Zhu Y Z, et al. FASEB J. (2005) 19:1196-1198; Bhatia M, Sidhapuriwala J, Moochhala S M, et al. Br J Pharmacol. (2005) 145:141-144.). Accordingly, the following experiment was performed to confirm whether the imaging of the inflamed tissue where hydrogen sulfide was generated was possible when the ^99mTc-alpha-hydroxy acid according to the present invention was administered.
30 μL of physiological saline containing 1% carrageenan was injected into the right hind paw of a mouse, and 30 μL of physiological saline was injected into the left hind paw of the mouse.

[3] = Reaction of ^99mTc-alpha-hydroxy acid with glutathione, insoluble substances by ITLC; conditions: 4 mM glutathione in 0.2 M sodium phosphate buffer pH 7.4, 37° C., 15 minutes
Protocol: (§1) Particularly, the ^99mTc-alpha-hydroxy acid prepared in Example 1 was diluted 5 times with physiological saline, and then 100 μL of each diluent was taken, to which 100 μL of each of 0.2 M sodium phosphate buffer (pH 7.4) containing 0.4 mM NaHS, 4 mM glutathione, 0.4 mM cysteine, 0.4 mM sodium sulfite, 0.4 mM sodium sulfate, 0.4 mM sodium thiosulfate, and 0.4 mM NONOate (NO generating reagent) was added, followed by reaction at 37° C. for 15 minutes. Then, ITLC was developed with physiological saline to determine the percentage of the radioactivity remaining at the origin.

[4] = Reaction of ^99mTc-alpha-hydroxy acid with cysteine, insoluble substances by ITLC; conditions: 0.4 mM cysteine in 0.2 M sodium phosphate buffer pH 7.4, 37° C., 15 minutes
Protocol: as §1

[5] = Reaction of ^99mTc-alpha-hydroxy acid with sodium sulfate, insoluble substances by ITLC; conditions: 0.4 mM sodium sulfate in 0.2 M sodium phosphate buffer pH 7.4, 37° C., 15 minutes
Protocol: as §1

[6] = ^99mTc-alpha-hydroxy acid in phosphate buffer alone, insoluble substances by ITLC; conditions: 0.2 M sodium phosphate buffer pH 7.4 alone, 37° C., 15 minutes
Protocol: as §1

[7] = Reaction of ^99mTc-alpha-hydroxy acid with NO (NONOate), insoluble substances by ITLC; conditions: 0.4 mM NONOate in 0.2 M sodium phosphate buffer pH 7.4, 37° C., 15 minutes
Protocol: as §1

[8] = Reaction of ^99mTc-alpha-hydroxy acid with sodium sulfite, insoluble substances by ITLC; conditions: 0.4 mM sodium sulfite in 0.2 M sodium phosphate buffer pH 7.4, 37° C., 15 minutes
Protocol: as §1

[9] = Reaction of ^99mTc-alpha-hydroxy acid with sodium thiosulfate, insoluble substances by ITLC; conditions: 0.4 mM sodium thiosulfate in 0.2 M sodium phosphate buffer pH 7.4, 37° C., 15 minutes
Protocol: as §1

[10] = Reaction of ^99mTc-alpha-hydroxy acid with NaHS, insoluble substances by ITLC; conditions: 0.4 mM NaHS in 0.2 M sodium phosphate buffer pH 7.4, 37° C., 15 minutes; radioactivity at origin, ITLC saline
Excerpt: Then, ITLC was developed with physiological saline to determine the percentage of the radioactivity remaining at the origin.

[11] = system: hydrogen sulfide in paw; assay: Hydrogen sulfide concentration in inflamed area (DMPD/FeCl3, absorbance 665 nm); type: in vivo; conditions: mouse paw, 4 hours after 30 μL 1% carrageenan, n=3
Protocol: In order to confirm that the concentration of hydrogen sulfide in the inflamed area was higher than the concentration of hydrogen sulfide in the normal area, it was measured as follows using a method described in the literature (A D Ang, A Konigstorfer, G I Giles, M Bhatia. Adv Biol Chem, 2012, 2:360-365). After 4 hours, the mouse was euthanized with carbon dioxide gas, and the ankle was cut and the weight was measured. 500 μL of 50 mM sodium carbonate buffer (pH 9) chilled with ice was added thereto and homogenized for 30 seconds gently, 1 minute 30 seconds moderately, and 30 seconds vigorously. After centrifugation at 1200×g for 5 minutes, the supernatant was obtained, to which 400 μL of a mixed solution of 350 μL of 1% zinc acetate and 50 μL of 1.5 M sodium hydroxide was added, followed by mixing well. After centrifugation at 1200×g for 5 minutes, the supernatant was discarded. To the precipitated pellet, 1 mL of distilled water saturated with nitrogen was added, which was mixed by vortexing for 1 minute. After centrifugation at 1200×g for 5 minutes, the supernatant was discarded. […] After reacting at room temperature for 15 minutes, absorbance was measured at 665 nm. A standard quantification curve was drawn with a standard sample measured by the same method, and then quantified.

Row | Compound | distribution of radioactivity in brain sections [1] | radioactivity of the inflamed area versus area administered with physiological saline [2] | percentage of insoluble substances produced after reaction with Glutathione [3] | percentage of insoluble substances produced after reaction with Cysteine [4] | percentage of insoluble substances produced after reaction with Sodium sulfate [5] | percentage of insoluble substances produced in Buffer [6] | percentage of insoluble substances produced after reaction with NO [7] | percentage of insoluble substances produced after reaction with Sodium sulfite [8] | percentage of insoluble substances produced after reaction with Thiosodium sulfate [9] | percentage of insoluble substances produced after reaction with NaHS [10] | concentration of hydrogen sulfide in the paws [11]
1 | OC[C@H]1OC(O)[C@H]([18F])[C@@H](O)[C@@H]1O (stereo partly shown) [[^18F] FDG, reference compound] | almost overlapped with the red area stained by TTC |  |  |  |  |  |  |  |  |  | 
2 | O=C1[O][99Tc-]2(=[O])([O]C(=O)C(C(O)C(O)C(O)C(O)CO)[O]2)[O]C1C(O)C(O)C(O)C(O)CO (stereo not shown) [^99mTc-glucoheptonate] |  | clearly higher |  |  |  |  |  |  |  |  | 
3 | O=C1[O][99Tc-]2(=[O])([O]C(=O)[C@@H]([C@@H](O)[C@H](O)[C@H](O)CO)[O]2)[O][C@@H]1[C@@H](O)[C@H](O)[C@H](O)CO [^99mTc-gluconate] | ingested at the boundary area rather than completely dead brain tissues and the normal brain tissues | clearly higher | 12.0 ± 2.4% | 5.1 ± 0.6% | 7.9 ± 1.5% | 8.7 ± 1.8% | 6.1 ± 1.0% | 6.4 ± 0.7% | 6.5 ± 1.0% |  | 
4 | ^99mTc-citrate |  |  | 7.5 ± 1.7% | 2.1 ± 0.2% | 8.0 ± 0.5% | 4.0 ± 0.1% | 5.6 ± 0.4% | 7.8 ± 0.7% | 5.5 ± 0.1% | 8.3±1.0% | 
5 | ^99mTc-glucarate |  |  | 13.4 ± 2.7% | 6.4 ± 1.7% | 4.6 ± 0.5% | 4.6 ± 0.5% | 4.7 ± 0.7% | 5.5 ± 0.8% | 5.6 ± 0.3% | 37.0±4.7% | 
6 | carrageenan |  |  |  |  |  |  |  |  |  |  | 43.7 ± 3.5 µM
